According to patent US11992488B2, “Vasoconstriction compositions and methods of use” (Eye Therapies, LLC, priority 2008, dated 2024):
Where two headings read alike, the source gives them in different places.

Experiments:
[1] = test system: patients with chronic red eyes; assay: Example 5: chronic red eyes, patient satisfaction assessment; format: in vivo, human; settings: eld brimonidine at […], drops twice a day for three to five weeks, seven patients
Procedure: The treatment was through drops twice a day for three to five weeks. At the end, patient satisfaction assessment was conducted.

over-responders [2] = settings: of 100 Subjects (over-responders)
[3] = FIG. 2
[4] = test system: patient with an ocular condition of moderate hyperemia; assay: FIGS. 5A-C: reversal of pre-induced rebound hyperemia; format: in vivo, human; settings: brimonidine at […], right eye after VISINE Original, FIG. 5C
Text: FIG. 5A is a baseline visual appearance of two eyes of a patient with an ocular condition.

over-responders [5] = settings: contact lenses soaked in 0.008% brimonidine, of 100 Subjects (over-responders)
Text: Contact lenses are often provided as daily wear lenses stored in a blisterpack solution.

[6] = test system: patient with an ocular condition; settings: brimonidine at 0.01% to […] vs tetrahydrozoline 0.05%, oxymetazoline […], naphazoline […]; one patient, baseline redness 4/4
Text: In an average clinical situation, baseline redness is at 1-1.5/4.

under-responders = settings: of 100 Subjects (under-responders)
[7] = test system: over-responders wearing contact lenses; settings: 0.008% brimonidine while wearing contact lenses, of 100 Subjects (over-responders)
Text: Contact lenses provide a reservoir to the surface of the eye allowing drugs to remain longer on the eye and increase their effectiveness.

[8] = 0.037% brimonidine after wash-out

With `Brc1c(N=C2NCCN2)ccc2nccnc12.O=C(O)C(O)C(O)C(=O)O` [brimonidine, 5-bromo-6-(2-imidazolidinylideneamino) quinoxaline L-tartrate] the patient-reported redness [1] was “All patients reported reduced redness”, the “Reduced Redness” value (over-responders [2]; […] brimonidine after wash-out) was 95 and the Whitening (over-responders [2]; […] brimonidine after wash-out) was 95. For the same molecule, the “Reduced Redness” value (over-responders [2]; […] brimonidine) was 85, the Whitening (over-responders [2]; […] brimonidine) was 85 and the “concentration at which intraocular pressure reduction is at its maximum” value [3] was “about 0.09%”. The “reversal of induced rebound hyperemia” value [4] was “reversing the VISINE Original® induced rebound hyperemia”, the “Reduced Redness” value (over-responders [5]) was 95 and the Whitening (over-responders [5]) was 95. For the same molecule, the “scleral whitening brightening effects” value [6] was “significant scleral whitening brightening effects”, the “Reduced Redness” value (under-responders; [8]) was 95 and the Whitening (under-responders; [8]) was 95. For the same molecule, the “Reduced Redness” value (under-responders; […] brimonidine) was 35, the Whitening (under-responders; […] brimonidine) was 35 and the “Reduced Redness” value [7] was 95. The Whitening [7] was 95.
